Assay results taken from patent publication US20130116277A1, “ALDO-KETO REDUCTASE SUBFAMILY 1C3 (AKR1C3) INHIBITORS” (priority 2007, published 2013).
pEC50, pIC50: −log10 of the molar value. Where “and” joins values, the source holds several entries; their conditions need not be identical. Identical values can stand only once. Like-named read-outs stand apart in the source and are kept apart here.

Columns and labels:
ER-beta = biological target: T1, ER-beta (Homo sapiens, UniProt Q92731); test: ER-beta transactivation (ERE-LUC luciferase) in HEK-293 cells; type: cell-based; conditions: for pEC50: drug alone, read-out: Agonist ER-β; for pIC50 / Antagonist ER-β, % of E2: antagonist mode; for pIC50: in combination with estradiol, read-out: Antagonist ER-β;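 as to all read-outs here: HEK-293 cells transiently transfected with an ER-β expression plasmid and ERE-LUC reporter, firefly luciferase read-out normalized to co-transfected Renilla luciferase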
T1 construct: expressed in transfected cells; host or cells: HEK-293

AKR1C3 [1] = biological target: T2, AKR1C3 (Homo sapiens, UniProt P42330); test: Purified AKR1C3 enzyme assay, [14C]-A'dione to testosterone, TLC based; type: biochemical; design: GST (N); made in house; host or cells: bacterial culture, IPTG induced (E. coli BL21-DE3 is named only for the crystallography preparation)
T2 sequence (P42330 1-323): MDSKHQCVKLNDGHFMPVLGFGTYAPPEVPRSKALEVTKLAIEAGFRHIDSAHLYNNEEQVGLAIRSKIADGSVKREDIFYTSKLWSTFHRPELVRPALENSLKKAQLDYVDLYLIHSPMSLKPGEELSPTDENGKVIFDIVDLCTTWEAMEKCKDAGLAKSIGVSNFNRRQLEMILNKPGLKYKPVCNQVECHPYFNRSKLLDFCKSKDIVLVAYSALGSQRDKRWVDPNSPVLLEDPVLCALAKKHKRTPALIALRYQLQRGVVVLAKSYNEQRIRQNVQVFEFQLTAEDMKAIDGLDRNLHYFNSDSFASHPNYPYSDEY
Experimental: Perkin Elmer; […] American Radiolabeled Chemicals, St. Louis, Mo.). The reaction was stopped by the addition of 400 μl ethyl acetate, vortexed, and spun for […] at 2000 rpm. The upper layer was transferred to a new tube and air dried. The pellet was resuspended in 25 μl of methanol, spotted on TLC plates and fractionated in TLC chamber with 3:1 chloroform:ethyl acetate. Once the mobile phase reached the top, the plates were dried and exposed to a phosphoimager screen overnight. […] Perkin Elmer) was incubated at 37° C. for 60 min. The reaction was stopped by the addition of 400 μl ethyl acetate, vortexed, and spun for […] at 2000 rpm. The upper layer was transferred to a new tube and air dried. The pellet was resuspended in 25 μl of methanol, spotted on TLC plates and fractionated in TLC chamber with 3:1 chloroform:ethyl acetate. Once the mobile phase reached the top, the plates were dried and exposed to a phosphoimager screen overnight.

ER-alpha = biological target: T3, ER-alpha (Homo sapiens, UniProt P03372); test: ER-alpha transactivation (ERE-LUC luciferase) in HEK-293 cells; type: cell-based; conditions: for pEC50 / Agonist ER-α, % of E2: agonist mode; for pEC50: drug alone, read-out: Agonist ER-α; for pIC50: in combination with estradiol, read-out: Antagonist ER-α;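 as to all read-outs here: HEK-293 cells co-transfected with an ER-alpha expression plasmid, an ERE-driven firefly luciferase reporter and a CMV Renilla control, with the firefly signal normalized to Renilla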
T3 construct: expressed in transfected cells; host or cells: HEK-293
T3 sequence (P03372 1-595): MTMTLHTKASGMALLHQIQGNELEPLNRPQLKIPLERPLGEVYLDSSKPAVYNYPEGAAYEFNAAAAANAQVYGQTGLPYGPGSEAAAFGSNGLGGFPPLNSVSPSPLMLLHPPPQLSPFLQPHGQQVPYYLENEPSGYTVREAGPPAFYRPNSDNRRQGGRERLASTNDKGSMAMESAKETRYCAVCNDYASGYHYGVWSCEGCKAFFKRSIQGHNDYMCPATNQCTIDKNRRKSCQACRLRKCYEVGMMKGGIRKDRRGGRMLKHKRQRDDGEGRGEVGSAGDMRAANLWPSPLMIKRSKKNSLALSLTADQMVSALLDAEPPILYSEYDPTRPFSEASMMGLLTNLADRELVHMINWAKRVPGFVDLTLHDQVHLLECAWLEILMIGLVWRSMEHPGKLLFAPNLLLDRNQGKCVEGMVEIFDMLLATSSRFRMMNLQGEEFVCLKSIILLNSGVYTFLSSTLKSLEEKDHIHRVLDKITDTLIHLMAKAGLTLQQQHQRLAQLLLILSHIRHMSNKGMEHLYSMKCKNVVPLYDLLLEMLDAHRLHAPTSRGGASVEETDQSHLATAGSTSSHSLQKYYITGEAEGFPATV

AKR1C3 [2] = biological target: T2, AKR1C3; test: cell-based
ER-β = ER-β (Homo sapiens, UniProt Q92731); test: ER-β ligand binding domain competitive binding with [3H]Estradiol
[3] = Liver microsome incubation (HLM Phase I and Phase I + II), LC-MS/MS; type: in vitro ADME, human; conditions: for microsomal CLint: human, human liver microsomes
Experimental: Stock solutions of prespective AKR1C3 inhibitors were prepared in DMSO at 5 mM and were incubated with liver microsomes (0.1 mg/mL). Incubations were conducted at 37° C. in a shaking water bath for 10 minutes (microsomes). Incubation durations were selected based on time course study (microsomes) or published literature (recombinant enzymes). Prepared samples were analyzed using LC-MS/MS.

[4] = 10 μM inhibitor, purified AKR1C3 TLC based enzyme assay, read-out: AKR1C3 inhibition at 10 μM
[5] = read-out: % inhibition from control HSD-5 (10 uM)
[6] = HLM Phase I + II, read-out: HLM Phase I + II CLint
[7] = HLM Phase I, read-out: HLM Phase I CLint

ER-β, sequence (Q92731 264-498 limits assumed, species assumed): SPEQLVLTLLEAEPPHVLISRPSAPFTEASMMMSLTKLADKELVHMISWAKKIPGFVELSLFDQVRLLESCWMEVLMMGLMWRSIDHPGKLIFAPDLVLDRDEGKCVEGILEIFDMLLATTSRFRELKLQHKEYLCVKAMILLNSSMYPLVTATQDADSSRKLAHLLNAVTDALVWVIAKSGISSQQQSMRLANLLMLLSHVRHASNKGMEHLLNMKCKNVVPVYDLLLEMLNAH
T1 sequence (Q92731 whole entry, species assumed): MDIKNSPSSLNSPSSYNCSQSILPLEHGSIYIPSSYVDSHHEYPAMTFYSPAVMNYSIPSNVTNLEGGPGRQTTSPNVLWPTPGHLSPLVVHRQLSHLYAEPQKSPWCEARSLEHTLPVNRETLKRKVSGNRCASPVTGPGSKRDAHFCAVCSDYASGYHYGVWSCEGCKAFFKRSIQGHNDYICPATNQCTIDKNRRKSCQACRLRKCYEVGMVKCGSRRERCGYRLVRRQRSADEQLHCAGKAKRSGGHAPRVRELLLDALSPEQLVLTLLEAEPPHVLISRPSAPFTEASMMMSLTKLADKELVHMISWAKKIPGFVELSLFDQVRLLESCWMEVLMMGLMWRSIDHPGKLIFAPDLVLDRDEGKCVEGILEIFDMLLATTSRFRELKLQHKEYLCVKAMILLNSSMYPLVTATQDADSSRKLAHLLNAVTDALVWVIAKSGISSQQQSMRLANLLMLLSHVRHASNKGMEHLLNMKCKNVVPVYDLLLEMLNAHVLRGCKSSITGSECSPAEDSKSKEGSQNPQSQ

pEC50 (ER-beta; agonist mode) | inhibition at 10 µM (AKR1C3 [1]; [4]) [%] | inhibition at 10 µM (AKR1C3 [1]; [5]) [%] | pIC50 (AKR1C3 [2]) | SMILES | further results
< 5.00 | 42 | 42 |  | O=C(O)c1ccc(-c2cn(-c3ccc(O)cc3)c(=O)c3ccc(O)cc23)cc1 [Compound 43, 4-(6-hydroxy-2-(4-hydroxyphenyl)-1-oxo-1,2-dihydroisoquinolin-4-yl)benzoic acid] | pIC50 (ER-beta): < 5.00; pEC50 (ER-alpha): < 5.00; pIC50 (ER-alpha; antagonist mode): < 5.00
 |  |  | 6.62 | NC(=O)c1cccc(-n2cc(-c3ccc(C(F)(F)F)c(F)c3)c3cc(O)ccc3c2=O)c1 [Compound 214, 3-(4-(3-fluoro-4-(trifluoromethyl)phenyl)-6-hydroxy-1-oxoisoquinolin-2(1H)-yl)benzamide] | 
< 5.00 | 86 | 86 | 6.85 | N#Cc1cc(O)cc2c(-c3cc(F)c(F)c(F)c3)cn(-c3ccc(O)cc3)c(=O)c12 [Compound 85, 6-hydroxy-2-(4-hydroxyphenyl)-1-oxo-4-(3,4,5-trifluorophenyl)-1,2-dihydroisoquinoline-8-carbonitrile] | Antagonist ER-β, % of E2 (ER-beta; @1000 nM): 59.7% of E2 @1000 nM; Agonist ER-α, % of E2 (ER-alpha; @10k nM): 36.5% of E2 @10k nM; pIC50 (ER-alpha; antagonist mode): < 5.00
 | 0 | 0 |  | NC(=O)c1cc(O)cc2c(-c3cc(F)c(F)c(F)c3)cn(-c3ccc(O)cc3)c(=O)c12 [Compound 100A, 6-hydroxy-2-(4-hydroxyphenyl)-1-oxo-4-(3,4,5-trifluorophenyl)-1,2-dihydroisoquinoline-8-carboxamide] | 
 | 0 | 0 |  | COC(=N)c1cc(O)cc2c(-c3ccc(C(F)(F)F)c(F)c3)cn(-c3ccc(O)cc3)c(=O)c12 [Compound 102A, Methyl 4-(3-fluoro-4-(trifluoromethyl)phenyl)-6-hydroxy-2-(4-hydroxyphenyl)-1-oxo-1,2-dihydroisoquinoline-8-carbimidate] | 
 | 0 | 0 |  | NC(=O)c1cc(O)cc2c(-c3ccc(C(F)(F)F)c(F)c3)cn(-c3ccc(O)cc3)c(=O)c12 [Compound 102B, 4-(3-fluoro-4-(trifluoromethyl)phenyl)-6-hydroxy-2-(4-hydroxyphenyl)-1-oxo-1,2-dihydroisoquinoline-8-carboxamide] | 
 | 10 | 10 |  | N#Cc1cc(O)cc2c(-c3ccc(C(F)(F)F)c(F)c3)cn(-c3ccc(O)cc3)c(=O)c12 [Compound 102, 4-(3-Fluoro-4-(trifluoromethyl)phenyl)-6-hydroxy-2-(4-hydroxyphenyl)-1-oxo-1,2-dihydroisoquinoline-8-carbonitrile] | 
< 5.00 | 45 | 45 |  | CS(=O)(=O)c1ccc(-c2cn(-c3ccc(O)cc3)c(=O)c3ccc(O)cc23)cc1 [Compound 37, 6-hydroxy-2-(4-hydroxyphenyl)-4-(4-(methylsulfonyl)phenyl)isoquinolin-1(2H)-one] | HLM Phase I T-1/2 (min) ([3]; HLM Phase I): stable; HLM Phase I + II T-1/2 ([3]; HLM Phase I + II): 3.8 min; microsomal CLint [3, 6]: 183 µL/min/mg; pEC50 (ER-alpha): < 5.00; pIC50 (ER-alpha; antagonist mode): < 5.00
< 5.00 | 20 | 20 |  | CNS(=O)(=O)c1ccc(-c2cn(-c3ccc(O)cc3)c(=O)c3ccc(O)cc23)cc1 [Compound 36, 4-(6-hydroxy-2-(4-hydroxyphenyl)-1-oxo-1,2-dihydroisoquinolin-4-yl)-N-methylbenzenesulfonamide] | pEC50 (ER-alpha): < 5.00; pIC50 (ER-alpha; antagonist mode): < 5.00
 | 20 | 20 |  | COC(=N)c1cc(O)cc2c(-c3cc(F)c(F)c(F)c3)cn(-c3ccc(O)cc3)c(=O)c12 [Compound 100, Methyl 6-hydroxy-2-(4-hydroxyphenyl)-1-oxo-4-(3,4,5-trifluorophenyl)-1,2-dihydroisoquinoline-8-carbimidate] | 
 | 44 | 44 |  | O=c1c2ccc(O)cc2c(-c2cc(F)c(F)c(F)c2)cn1-c1ccc(O)cc1 [Compound 79, 6-hydroxy-2-(4-hydroxyphenyl)-4-(3,4,5-trifluorophenyl)isoquinolin-1(2H)-one] | Agonist ER-β, % of E2 (ER-beta; agonist mode, @1000 nM): 45.0% of E2 @1000 nM; Antagonist ER-β, % of E2 (ER-beta; @10k nM): 45.3% of E2 @10k nM; Agonist ER-α, % of E2 (ER-alpha; @1000 nM): 32.6% of E2 @1000 nM; Antagonist ER-α, % of E2 (ER-alpha; antagonist mode, @10k nM): 51% of E2 @10k nM

Second part, the compound before the results:

SMILES | pEC50 (ER-beta; agonist mode) | inhibition at 10 µM (AKR1C3 [1]; [4]) [%] | inhibition at 10 µM (AKR1C3 [1]; [5]) [%] | pIC50 (AKR1C3 [2]) | further results
C[C@@H]1O[C@@H](OC[C@H]2O[C@@H](Oc3c(-c4ccc(O)c(O)c4)oc4cc(O)cc(O)c4c3=O)[C@H](O)[C@@H](O)[C@@H]2O)[C@H](O)[C@H](O)[C@H]1O [Rutin, reference compound] |  |  |  | < 5.00 | 
COc1cc(C=CC(=O)O)cc(OC)c1OC [3,4,5 trimethoxy cinnamic acid, reference compound] |  |  |  | < 5.00 | 
COc1ccc2c(=O)n(-c3ccc(CO)c(OC)c3)cc(-c3ccc(C(F)(F)F)cc3)c2c1 [Compound 25, 2-(4-(hydroxymethyl)-3-methoxyphenyl)-6-methoxy-4-(4-(trifluoromethyl)phenyl)isoquinolin-1(2H)-one] |  | 0 |  |  | 
C/C=C/c1cn(-c2ccc(O)cc2)c(=O)c2c(O)cc(O)cc12 [Compound 15i] | < 5.00 |  | 10 |  | pIC50 (ER-beta): 7.49 and 7.18; Ki (ER-β): 1.66 nM; pEC50 (ER-alpha): < 5.00; pIC50 (ER-alpha; antagonist mode): 5.71 and 5.75
O=c1c2ccc(O)cc2c(-c2ccccc2)cn1-c1ccc(O)cc1 [Compound 15a, 6-hydroxy-2-(4-hydroxyphenyl)-4-phenylisoquinolin-1(2H)-one] | < 5.00 |  | 0 | 4.79 | pIC50 (ER-beta): 6.04; HLM Phase I T-1/2 ([3]; HLM Phase I): 152.8 min; HLM Phase I + II T-1/2 ([3]; HLM Phase I + II): 23.3 min; microsomal CLint [3, 6]: 29.7 µL/min/mg; microsomal CLint [3, 7]: 4.5 µL/min/mg; Ki (ER-β): 130 nM
COC(=O)c1ccc(-n2ccc3cc(O)ccc3c2=O)cc1CBr [Compound 104A, methyl 2-(bromomethyl)-4-(6-hydroxy-1-oxoisoquinolin-2(1H)-yl)benzoate] |  |  | 5 |  | 
COc1ccc(-c2cn(-c3ccc(O)cc3)c(=O)c3c(O)cc(O)cc23)cc1 [Compound 15g, 6,8-dihydroxy-2-(4-hydroxyphenyl)-4-(4-methoxyphenyl)isoquinolin-1(2H)-one] | < 5.00 |  | 40 | 5.34 | pIC50 (ER-beta): 7.65; HLM Phase I CLint ([3]; HLM Phase I): 35.8 µL/min/mg; HLM Phase I T-1/2 ([3]; HLM Phase I): 16.5 min and 19.32 min; HLM Phase I + II T-1/2 ([3]; HLM Phase I + II): 1.6 min; microsomal CLint [3, 6]: 422 µL/min/mg; microsomal CLint [3, 7]: 42.1 µL/min/mg; Ki (ER-β): 2.77 nM
O=C(O)c1cccc(Nc2ccc(C(F)(F)F)cc2)c1 [DKB-476-065] |  |  |  | 6.81 | 
